This is an account of results in paper PMC12032302, “A20 attenuates oxidized self-DNA-mediated inflammation in acute kidney injury” (Signal Transduction and Targeted Therapy, 2025).

The test system of experiment [1] is AKI mice. The experiment is described as follows: serum creatinine of AKI mice. Particulars: Cis-treated mice; A20-derived peptide 15 mg/kg i.p., pretreated; n = 5. Type of experiment: in vivo, mouse. As to the method: (§1) LPS (Sigma, Cat#L2630) was dissolved in PBS to 2.5 mg/mL for one-time intraperitoneal 25 mg/kg injection; deoxyribonuclease I (DNase I, Sigma, Cat#SLBV1446) was dissolved in PBS to 1 mg/mL and injected intraperitoneally at a dose of 10 mg/kg at 4 h before cisplatin or AA I injection and every 24 h after injection. Disulfiram (MedChemExpress, CAS:97-77-8) was diluted in corn oil to 12.5 mg/mL and injected 50 mg/kg intraperitoneally every 24 h after cisplatin or AA I administration. Cu(II) (Sigma, Cat#344419) was dissolved in PBS to 30 µg/mL and administered intraperitoneally 6 h before disulfiram at a dose of 0.15 mg/kg; TNF-α (Peprotech, Cat#315-01 A) was dissolved in PBS to 10 µg/mL and injected at 100 µg/kg once through the caudal vein 24 h before cisplatin injection. […] MCC950 (MedChem Express, CAS:256373-96-3) was dissolved in PBS to 5 mg/mL and injected intraperitoneally at a dose of 50 mg/kg 12 h before cisplatin or AA I injection and every 12 h after injection; berberine (APExBIO, Cat#N1368) was dissolved in PBS to 5 mg/mL and 5 mg/kg injected intraperitoneally at 36, 24 and 12 h before cisplatin; […] To supervise the effects of various treatments on survival time and rate, the mice were observed, and survival curves were generated. To investigate the specific mechanisms, whole blood was retrieved from the orbit, serum was separated through centrifugation on the 4th day, and the mice were then sacrificed by cervical dislocation. Mice were randomly assigned in experiments, while there was no blinding during the animal experiments. Renal function was evaluated based on serum creatinine level and histological features. Serum creatinine was determined in the Clinical Pharmacology Lab, Clinical Trial Center, WCH, SCU. The kidneys were extracted from euthanized mice, immediately fixed with 4% paraformaldehyde, and embedded in paraffin. Furthermore, the samples were cut into 5 µm thick sections. These tissue samples were subjected to hematoxylin-eosin (HE) and […] according to standard protocols with HE reagent (Biosharp, Cat#BL702B, BL703B) and Masson reagent (Servicebio, Cat#G1006-100ML). The pathological changes were detected through optical microscopy, and the tubulointerstitial injury score was determined as previously reported.

Experiment [2] concerns HA-NEK7 K140A. The experiment is described as follows: biotin-P-II immunoprecipitation of HA-NEK7 K140A. Type of experiment: binding, mouse. Particulars: co-IP with biotin-labeled P-II, HEK293T lysates, overnight 4 °C, immunoblot; Fig. 7c. As to the method:
For biotin mediated immunoprecipitation, plasmids of HA-NEK7 (WT, K130A, L132R, K140A and Tri-MUT) were transfected into HEK293T cells for 2 days. Then, cells were lysed in MLB with inhibitor cocktail for 10 min at 4 °C. Cell lysates were collected and centrifuged at 12,000 rpm for 15 min at 4 °C and the supernatant was incubated with biotin conjunction peptide overnight at 4 °C. On the next day, streptavidin magnetic beads(Invitrogen, Lot#91221939) were added and incubated for 1 h. The immunocoprecipitated protein was then subjected to washing, heating, and western blot analysis.
(§2) Mouse HA-NEK7, FlAG-A20, and NLRP3 cDNA were amplified by employing standard PCR techniques from a mouse cDNA library. Subsequently, diverse cDNAs were inserted into mammalian expression vectors pcDNA3.1(+), pRK5, or pCMV6 with 3×Flag or 3×HA tags. For transient transfections, Lipofectamine 3000 was utilized according to the manufacturer’s instructions.

Experiment [3] concerns NEK7 and NLRP3 complex. Description: interaction of NEK7 and NLRP3 complex. Type of experiment: binding. The procedure:
Cells were lysed in mild lysis buffer with a protease inhibitor cocktail (Cell Signaling Technology, Cat#5872S) on ice for 10 min to perform the coimmunoprecipitation (co-IP) assay. Samples were then centrifuged at 12,000 rpm at 4 °C for 10 min, and the supernatant was incubated with the corresponding primary antibody (anti-HA, 1:100, Cell Signaling Technology, Cat#3724S) overnight at 4 °C. On the next day, magnetic beads were added and incubated for 1 h. The immunocoprecipitated protein was washed three times by MLB and then heated with 4× Laemmli loading buffer at 100 °C for 10 min. Samples were then subjected to western blot analysis.

The target of experiment [4] is T1, HA-Tri-MUT-NEK7 (Mus musculus, UniProt Q9ES74, K130A/K140A/L132R).
T1 construct: 3×HA; made in house; host or cells: HEK293T
T1 sequence (Q9ES74 whole entry K130A/L132R/K140A): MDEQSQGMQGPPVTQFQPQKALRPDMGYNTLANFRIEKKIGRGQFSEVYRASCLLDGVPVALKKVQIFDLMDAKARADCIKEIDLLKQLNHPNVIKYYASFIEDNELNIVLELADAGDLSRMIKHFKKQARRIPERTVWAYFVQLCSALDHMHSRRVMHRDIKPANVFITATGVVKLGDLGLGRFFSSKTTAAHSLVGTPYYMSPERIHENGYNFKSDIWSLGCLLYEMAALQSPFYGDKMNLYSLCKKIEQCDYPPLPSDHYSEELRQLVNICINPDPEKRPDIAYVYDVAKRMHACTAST
Description: BLI analysis of NEK7 and P-II, HA-Tri-MUT-NEK7. Type of experiment: binding. The settings on record: K130, L132 and K140 mutated, Fig. 7d.
Excerpt: For BLI analysis, 3×HA-WT-NEK7 or 3×HA-Tri-MUT-NEK7 plasmids were transfected into HEK293T cells. Post-transfection, proteins were purified with HA antibody via coimmunoprecipitation and then eluted with 0.1 M glycine, Ph2.0. Then, samples were neutralized with 3 M NaOH and subjected to BLI analysis.
as §2
(§3) Bio-Layer Interferometry (BLI) analysis
(§4) The peptide (Bootech BioScience &Technology) was immobilized separately on Octet® AR2G Biosensors (Sartorius, Lot#2308017311) at a concentration of 400 μg/ml for 500 s. Association and dissociation curves were obtained through the addition of a dilution series of recombinant human NEK7 protein (SinoBiological, CAT#11534-H20B) (39.0625 to 1250 nM) for 120 s followed by dissociation for 120 s. Interference patterns for association or dissociation were measured in real-time to generate a response profile on the Octet® System Octet 96 Red instrument (Sartorius). A 1:1 binding model was used to evaluate the Kinetic parameter.

The subject of experiment [5] is recombinant human NEK7 protein. The experiment is described as follows: BLI analysis of recombinant human NEK7 and P-II. Particulars: Supplementary Fig. 4e, peptide immobilized on AR2G biosensors 400 μg/ml, recombinant human NEK7 39.0625 to 1250 nM, 1:1 binding model. As to the method:
as §3, §4

Experiment [6] concerns AKI mice. Description: tubular injury / renal injury of AKI mice (HE histology). The settings on record: Cis-treated mice; A20-derived peptide 15 mg/kg i.p., pretreated; n = 9. Type of experiment: in vivo, mouse. As to the method: as §1

Molecules are shown by their SMILES. Entries after “also recorded” stand apart in the source; their conditions may differ. Residues, ends and D or L forms follow the SMILES beside them.

Turning to `CSCC[C@H](NC(=O)[C@H](Cc1ccc(O)cc1)NC(=O)[C@H](CCC(N)=O)NC(=O)[C@H](CS)NC(=O)[C@H](C)NC(=O)[C@H](C)NC(=O)[C@H](Cc1c[nH]cn1)NC(=O)[C@H](CCSC)NC(=O)[C@H](CC(C)C)NC(=O)[C@H](CS)NC(=O)[C@H](CC(N)=O)NC(=O)CNC(=O)[C@H](CC(=O)O)NC(=O)CNC(=O)[C@H](CC(N)=O)NC(=O)[C@@H](NC(=O)[C@H](CCCCN)NC(=O)[C@H](CC(C)C)NC(=O)[C@H](C)NC(=O)[C@@H](NC(=O)[C@H](CC(C)C)NC(=O)[C@@H](N)CCCCN)C(C)C)[C@@H](C)O)C(=O)N[C@@H](Cc1c[nH]c2ccccc12)C(=O)NCC(=O)N[C@H](C(=O)N[C@@H](CCC(N)=O)C(=O)N[C@@H](CC(=O)O)C(=O)N[C@H](C(=O)N[C@@H](CC(=O)O)C(=O)O)[C@@H](C)O)C(C)C` [P-II] (H-KLVALKTNGDGNCLMHAACQYMWGVQDTD-OH; N-terminus and C-terminus assumed), the “serum creatinine (in words)” value in experiment [1] is given as “alleviated the serum creatinine”. The “binding of NEK7 and P-II, effect of K140A mutation” value in experiment [2] is “significantly attenuate the binding of NEK7 and P-II; also recorded: Lys140 of NEK7 is crucial for this binding”. Moreover, the “interference with NEK7-NLRP3 interaction” value in experiment [3] is “interfere with the interaction between NEK7 and NLRP3 through Lys140 of NEK7; also recorded: interfering the binding of NEK7 to NLRP3 complex”. Moreover, the “affinity of NEK7 for P-II, effect of simultaneous mutation of three residues” value in experiment [4] is “abrogated the affinity of NEK7 for P-II”. The “affinity for NEK7 (in words)” value in experiment [5] was “high affinity to NEK7 protein”. In experiment [6], the “renal injury (in words)” value is “alleviated the serum creatinine and renal injury”.
